Measurements reported in patent US9085550B2, “Ligands for estrogen related receptors and methods for synthesis of said ligands” (CITY OF HOPE, priority 2005, dated 2015).

Columns and labels:
Type in all cases: cell-based
[1] = molecular target: T1, GAL-hERRa (human ERRα ligand binding domain fused to GAL4 DNA binding domain) (Homo sapiens, UniProt P11474); assay: GAL4 reporter transactivation assay in CV-1 cells, GAL-hERRa; conditions: for Fold activation, GAL-hERRa + PGC-1a / Fold activation, GAL-hERRa / Fold activation, Receptor ERRα: CV-1; for Fold activation, GAL-hERRa + PGC-1a: reporter 0.42:vector 0.00875:PGC-1a 0.035; for Fold activation, GAL-hERRa: reporter 0.42:vector 0.00875, no PGC-1a; for Fold activation, Receptor ERRα: Table 1, reporter 0.42:receptor vector 0.035:PGC-1a 0.035; for Activation of ERRα: in the presence of PGC-1a
T1 construct: expressed in transfected cells; host or cells: CV-1
T1 sequence (P11474 193-421 limits assumed): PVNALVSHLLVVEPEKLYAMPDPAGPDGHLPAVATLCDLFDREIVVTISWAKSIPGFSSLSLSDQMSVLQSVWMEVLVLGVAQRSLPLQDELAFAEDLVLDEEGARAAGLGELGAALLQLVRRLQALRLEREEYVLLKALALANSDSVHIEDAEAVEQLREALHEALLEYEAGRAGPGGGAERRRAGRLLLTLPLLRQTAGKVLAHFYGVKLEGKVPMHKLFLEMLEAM

human ERα = molecular target: T2, human ERα (Homo sapiens, UniProt P03372); assay: ERE-TK-luc reporter transactivation assay in CV-1 cells, full-length hERa; conditions: for Fold Activation, ERE-TK-luc, hERa: Table 7, CV-1, drug conc 30 μM; for Activation of ERa: specificity for ERRs
T2 construct: Human ERα and ERβ were examined as full-length proteins using an estrogen receptor responsive reporter construct; expressed in transfected cells; host or cells: CV-1
T2 sequence (P03372 1-595): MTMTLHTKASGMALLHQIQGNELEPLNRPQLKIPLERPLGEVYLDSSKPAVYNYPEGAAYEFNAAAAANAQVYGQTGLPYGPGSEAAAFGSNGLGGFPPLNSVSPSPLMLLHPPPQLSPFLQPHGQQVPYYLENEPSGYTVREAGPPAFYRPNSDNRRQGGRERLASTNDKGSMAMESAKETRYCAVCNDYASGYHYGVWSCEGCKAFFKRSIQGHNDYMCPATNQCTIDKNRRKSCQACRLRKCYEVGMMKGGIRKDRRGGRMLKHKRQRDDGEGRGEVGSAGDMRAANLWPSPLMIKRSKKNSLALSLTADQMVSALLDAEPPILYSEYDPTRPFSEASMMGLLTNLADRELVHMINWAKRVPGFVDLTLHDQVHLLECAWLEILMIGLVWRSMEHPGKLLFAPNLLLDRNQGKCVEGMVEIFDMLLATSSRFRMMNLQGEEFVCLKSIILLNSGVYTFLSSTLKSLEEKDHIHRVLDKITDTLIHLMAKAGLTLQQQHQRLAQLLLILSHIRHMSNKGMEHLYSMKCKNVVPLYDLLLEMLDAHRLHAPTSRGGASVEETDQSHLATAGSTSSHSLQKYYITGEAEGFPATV
Procedure: Human ERα and ERβ were examined as full-length proteins using an estrogen receptor responsive reporter construct.
Suitable reporter gene constructs are well known to skilled workers in the fields of biochemistry and molecular biology. […] Other vectors known in the art can be used in the methods of the present invention.
CV-1 cells for the activation assays were grown in Dulbecco's modified Eagle's medium supplemented with 10% resin charcoal-stripped fetal bovine serum, 50 U/ml penicillin G and 50 μg/ml streptomycin sulfate (DMEM-FBS) at 37° C. in 5% CO2. One day prior to transfection, cells were plated to 50-80% confluence using phenol red free DMEM-FBS.

ERR = assay: GAL4-ERR reporter assay in CV-1 cells, potency with versus without PGC-1a; conditions: activated ERR at lower doses in the presence of PGC-1a
Procedure: Additional compounds were tested for their effects on ERR activation (Tables 3-6). DY159, DY162, DY163 and DY164 as well as DY131 can activate all three ERRs (ERRα/β/γ) in the presence of PGC-1a. […] Therefore, these compounds have two novel features yet to be reported: a) they are selective ERR modulators or coactivator-selective ligands, i.e., they activate ERR better in the presence of PGC-1a then the other coactivators that are normally present in CV-1 cells; and b) these are the first synthetic compounds reported to ACTIVATE ERRα. Previously reported compounds repress the constitutive activity of ERRα (see Willy et al., supra).
Referring to Tables 1-6, cell based transactivation assays were performed in CV-1 cells as described. See Wang, H., Chen, J., Hollister, K., Sowers, L. C., Forman, B. M., Endogenous bile acids are ligands for the nuclear receptor FXR/BAR, Mol Cell 1999, 3, 543-553. ERR activity was assayed with a GAL4 reporter construct and fusion proteins containing the ligand binding domains of human ERRα, human ERR β and mouse ERRγ linked to the DNA binding domain of yeast GAL4. Human ERα and ERβ were examined as full-length proteins using an estrogen receptor responsive reporter construct.
To test the effect of the compounds on ERR and ER, CV-1 cells were transiently transfected with expression vectors for the receptors along with appropriate reporter constructs according to methods known in the art. The receptors to be tested were expressed in CV-1 cells. Suitable reporter gene constructs are well known to skilled workers in the fields of biochemistry and molecular biology. All transfections additionally contained an expression vector with a cytomegalovirus promoter (pCMV-β-gal) as an internal control. Suitable constructs for use in these studies may conveniently be cloned into a cytomegalovirus expression vector (pCMV). For example, pCMV-β-gal contains the E. coli β-galactosidase gene expressed under control of the cytomegalovirus promoter/enhancer. Other vectors known in the art can be used in the methods of the present invention. […]

Row | Fold activation, GAL-hERRa + PGC-1a ([1]; 0.3 μM) [fold] | Fold activation, GAL-hERRa + PGC-1a ([1]; 1 μM) [fold] | Fold activation, GAL-hERRa + PGC-1a ([1]; 3 μM (first 3 μM column)) [fold] | Fold activation, GAL-hERRa + PGC-1a ([1]; 3 μM (second 3 μM column)) [fold] | Fold activation, GAL-hERRa + PGC-1a ([1]; 10 μM) [fold] | Fold activation, GAL-hERRa + PGC-1a ([1]; 30 μM) [fold] | Fold activation, GAL-hERRa ([1]; 0.3 μM) [fold] | Fold activation, GAL-hERRa ([1]; 1 μM) [fold] | Fold activation, GAL-hERRa ([1]; 3 μM (first 3 μM column)) [fold] | Fold activation, GAL-hERRa ([1]; 3 μM (second 3 μM column)) [fold] | Fold activation, GAL-hERRa ([1]; 10 μM) [fold] | Fold activation, GAL-hERRa ([1]; 30 μM) [fold] | Activation of ERRα [1] | Fold Activation, ERE-TK-luc, hERa (human ERα) [fold] | Activation of ERa (human ERα) | Structure (SMILES) | Potency of ERR activation with versus without PGC-1a (ERR) | other results
1 | 1.69 | 2.07 | 2.43 | 2.47 | 3.75 | 3.31 | 1.10 | 0.96 | 1.55 | 1.57 | 1.44 | 1.87 | can activate | 0.53 | do not activate | CCN(CC)c1ccc(C=NNC(=O)c2ccc(O)cc2)cc1 [DY131, 4-Hydroxy-benzoic acid (4-diethylamino-benzylidene)-hydrazide] | more potent activators in the presence of PGC-1a than without | Fold activation, Receptor ERRα ([1]; 3 μM): 1.5 fold; Fold activation, Receptor ERRα ([1]; 10 μM): 1.7 fold; Fold activation, Receptor ERRα ([1]; 30 μM): 1.6 fold; Activation of the reporter construct for ERRα ([1]; Table 1 conditions (reporter:Gal-ERR:PGC-1a=0.4:0.035:0.035), any of the concentrations tested): failed to activate; Activation of the reporter construct for ERRα ([1]; different assay conditions (reporter plasmid:Gal-ERR:PGC-1a=0.4:0.00875:0.035), Table 2): activated; Activity on ERα (activate or inhibit) (human ERα; CV-1 reporter assay): failed to activate or inhibit
2 | – | 1.18 | 1.69 | 1.55 | 2.02 | 2.61 | – | 1.03 | 1.41 | 1.23 | 1.64 | 2.41 | can activate | 1.59 | do not activate | Cc1cccc(C=NNC(=O)c2ccc(O)cc2)c1 [DY159, 4-Hydroxy-benzoic acid (3-methyl-benzylidene)-hydrazide] | more potent activators in the presence of PGC-1a than without | –
3 | 1.26 | 1.22 | 2.11 | 1.93 | 2.18 | 2.36 | 0.77 | 0.86 | 0.89 | 1.51 | 1.82 | 2.03 | can activate | 1.74 | do not activate | O=C(NN=Cc1ccccc1)c1ccc(O)cc1 [DY162, 4-Hydroxy-benzoic acid benzylidene-hydrazide] | more potent activators in the presence of PGC-1a than without | –
